Data from US20130123494A1, “COMPLEX COMPOUND AND OPTICAL RECORDING MEDIUM CONTAINING SAME” (KH NEOCHEM CO., LTD., priority 2010, published 2013).

Tests used:
Assay type in all cases: physicochemical
[1] = Lightfastness test of thin films; details: thin film on glass plate, UV fluorescent lamps 15 W/m^2, 45° C., 10 hours
From the text: Thin films of Complex Compounds (2) to (5), (7), (9) to (11), (13) to (21), (24), (26), (28), (30), (31), and (33) were respectively obtained similarly to the film-forming test except that a glass plate (manufactured by Taiyu Kizai Co., Ltd.; 2 cm×2 cm; thickness: 2 mm) was used as the substrates instead of the plate made of polycarbonate resin. Using a dewpanel light control weather meter DPWL-5R, manufactured by Suga Test Instruments Co., Ltd., which was equipped with ultraviolet fluorescent lamps (SUGA-FS40, manufactured by Suga Test Instruments Co., Ltd., having a peak wavelength of 313 nm and an illuminance distribution of 282 nm to 373 nm), light was irradiated on the thin films with an amount of light of 15 W/m^2 at 45° C. for 10 hours. Ultraviolet-visible absorption spectra of the thin film before and after the lightfastness test were measured using a spectrophotometer.
Here, the absorption maximum wavelength after lightfastness test denotes an absorption maximum wavelength in the absorption spectrum after the lightfastness test.

[2] = Moisture- and heat-resistances test of thin films; details: thin film, 80° C., relative humidity 80%, 100 hours
Description: Similarly to the film-forming test, thin films of Complex Compounds (2) to (5), (7), (9) to (11), (13) to (21), (24), (26), (28), (30), (31), and (33) were respectively obtained. Using a constant temperature and humidity chamber, KHWII-40HP, manufactured by Satake Chemical Equipment Mfg Ltd., the thin films were exposed in the atmosphere having a temperature of 80° C. and a relative humidity of 80% for 100 hours. Ultraviolet-visible absorption spectra of the thin films before and after the moisture- and heat-resistances test were measured using a spectrophotometer. […] Here, the absorption maximum wavelength after the moisture- and heat-resistances test denotes the absorption maximum wavelength in an absorption spectrum after the moisture- and heat-resistances test.

[3] = Test of storage stability in solution; details: 13 mg in 1 mL TFP, brown bottle, 25° C., 3 days; 1250-fold diluted for measurement
Description: Each of 13 mg of Complex Compounds (2) to (5), (7), (9) to (11), (13) to (21), (24), (26), (28), (30), (31), and (33) was dissolved in 1 mL of TFP, which was filtered with a filter made of TEFLON (registered trademark) (manufactured by Whatman, having a pore diameter of 0.20 μm), and solutions of Complex Compounds (2) to (5), (7), (9) to (11), (13) to (21), (24), (26), (28), (30), (31), and (33) were respectively obtained. Each of the obtained solutions was transferred to a brown bottle with a lid and stored at 25° C. for 3 days. Before and after the storage stability test, using a spectrophotometer, 1250-fold diluted solutions of Complex Compounds (2) to (5), (7), (9) to (11), (13) to (21), (24), (26), (28), (30), (31), and (33), respectively, were measured for their ultraviolet-visible absorption spectra. […] Here, the absorption maximum wavelength after the storage stability test is the absorption maximum wavelength in the absorption spectrum after the storage stability test.

[4] = Water resistance test of thin films; details: for I^d/I^d0 (absorbance ratio at absorption maximum after/before water resistance test) / Δλmax (d) (change in absorption maximum wavelength): thin film immersed in water at 75° C. for 30 minutes; for Water resistance of thin film (in words): thin film in water at 75° C. for 30 minutes
Description: Similarly to the film-forming test, thin films of Complex Compounds (2), (3), (13), (19), and (20) were respectively obtained. Ultraviolet-visible absorption spectra of the thin films were measured using a spectrophotometer before and after the water resistance test in which the thin films were immersed in water at 75° C. for 30 minutes. […] Here, the absorption maximum wavelength after the water resistance test denotes the absorption maximum wavelength in the absorption spectrum after the water resistance test. […] Here, the water resistance test is a test under severe conditions, and a thin film having the ratio (I^d/I^d0) of 0.5 or greater has favorable water resistance.

Compound | I^a/I^a0 (absorbance ratio at absorption maximum after/before lightfastness test) [1] | I^b/I^b0 (absorbance ratio at absorption maximum after/before moisture- and heat-resistances test) [2] | Δλmax(b) (change in absorption maximum wavelength) [2] [nm] | I^c/I^c0 (absorbance ratio at absorption maximum after/before storage stability test) [3] | Δλmax(c) (change in absorption maximum wavelength) [3] [nm] | I^d/I^d0 (absorbance ratio at absorption maximum after/before water resistance test) [4] | Δλmax (d) (change in absorption maximum wavelength) [4] [nm] | Water resistance of thin film (in words) [4]
CCCCn1c([O-])c(/C=N/[N-]c2nnnn2-c2ccccc2)c(C)c(C#N)c1=O.CCCCn1c([O-])c(/C=N/[N-]c2nnnn2-c2ccccc2)c(C)c(C#N)c1=O.CCCCn1c([O-])c(/C=N/[N-]c2nnnn2-c2ccccc2)c(C)c(C#N)c1=O.CCCCn1c([O-])c(/C=N/[N-]c2nnnn2-c2ccccc2)c(C)c(C#N)c1=O.Fc1cccc(-[n+]2ccc(-c3cc[n+](-c4cccc(F)c4)cc3)cc2)c1.[Co+3].[Co+3] [Complex Compound (2)] | 0.92 | 0.97 | 0.5 | 1.00 | 0 | 0.73 | 0.5 | superior water resistance
Cc1c(/C=N/[N-]c2nnnn2-c2ccccc2)c([O-])n(CC(C)C)c(=O)c1C#N.Cc1c(/C=N/[N-]c2nnnn2-c2ccccc2)c([O-])n(CC(C)C)c(=O)c1C#N.Cc1c(/C=N/[N-]c2nnnn2-c2ccccc2)c([O-])n(CC(C)C)c(=O)c1C#N.Cc1c(/C=N/[N-]c2nnnn2-c2ccccc2)c([O-])n(CC(C)C)c(=O)c1C#N.Fc1ccc(-[n+]2ccc(-c3cc[n+](-c4ccc(F)cc4)cc3)cc2)cc1.[Co+3].[Co+3] [Complex Compound (20)] | 0.86 | 1.00 | 0.5 | 1.00 | 0.5 | 0.59 | 0.5 | superior water resistance
Cc1c(/C=N/[N-]c2nnnn2-c2ccccc2)c([O-])n(CC(C)C)c(=O)c1C#N.Cc1c(/C=N/[N-]c2nnnn2-c2ccccc2)c([O-])n(CC(C)C)c(=O)c1C#N.Cc1c(/C=N/[N-]c2nnnn2-c2ccccc2)c([O-])n(CC(C)C)c(=O)c1C#N.Cc1c(/C=N/[N-]c2nnnn2-c2ccccc2)c([O-])n(CC(C)C)c(=O)c1C#N.FC(F)(F)c1cccc(-[n+]2ccc(-c3cc[n+](-c4cccc(C(F)(F)F)c4)cc3)cc2)c1.[Co+3].[Co+3] [Complex Compound (19)] | 0.85 | 0.99 | 0 | 0.99 | 0 | 0.76 | 0 | superior water resistance
CCCCn1c([O-])c(/C=N/[N-]c2nnnn2-c2ccccc2)c(CCC)c(C#N)c1=O.CCCCn1c([O-])c(/C=N/[N-]c2nnnn2-c2ccccc2)c(CCC)c(C#N)c1=O.CCCCn1c([O-])c(/C=N/[N-]c2nnnn2-c2ccccc2)c(CCC)c(C#N)c1=O.CCCCn1c([O-])c(/C=N/[N-]c2nnnn2-c2ccccc2)c(CCC)c(C#N)c1=O.[Co+3].[Co+3].c1cc2ccc3ccc[n+]4c3c2[n+](c1)CCC4 [Complex Compound (28)] | 0.88 | 0.99 | 0 | 0.99 | 0 | – | – | –
CCn1c([O-])c(/C=N/[N-]C(=O)c2ccc(C(F)(F)F)cc2)c(C)c(C#N)c1=O.CCn1c([O-])c(/C=N/[N-]C(=O)c2ccc(C(F)(F)F)cc2)c(C)c(C#N)c1=O.CCn1c([O-])c(/C=N/[N-]C(=O)c2ccc(C(F)(F)F)cc2)c(C)c(C#N)c1=O.CCn1c([O-])c(/C=N/[N-]C(=O)c2ccc(C(F)(F)F)cc2)c(C)c(C#N)c1=O.[Co+3].[Co+3].c1cc[n+]2c(c1)-c1cccc[n+]1CCC2 [Complex Compound (11)] | 0.97 | 1.00 | 0 | 1.00 | 0 | – | – | –
Cc1c(/C=N/[N-]c2nnnn2-c2ccccc2)c([O-])n(CC(C)C)c(=O)c1C#N.Cc1c(/C=N/[N-]c2nnnn2-c2ccccc2)c([O-])n(CC(C)C)c(=O)c1C#N.[Co+3].c1ccc(-c2nn(-c3ccccc3)[n+](-c3ccccc3)n2)cc1 [Complex Compound (15)] | 0.88 | 1.00 | 0 | 1.01 | 0 | – | – | –
Cc1c(/C=N/[N-]c2nnnn2-c2ccccc2)c([O-])n(Cc2ccccc2)c(=O)c1C#N.Cc1c(/C=N/[N-]c2nnnn2-c2ccccc2)c([O-])n(Cc2ccccc2)c(=O)c1C#N.Cc1c(/C=N/[N-]c2nnnn2-c2ccccc2)c([O-])n(Cc2ccccc2)c(=O)c1C#N.Cc1c(/C=N/[N-]c2nnnn2-c2ccccc2)c([O-])n(Cc2ccccc2)c(=O)c1C#N.[Co+3].[Co+3].c1cc[n+]2c(c1)-c1cccc[n+]1CCC2 [Complex Compound (30)] | 0.89 | 0.99 | 0 | 0.99 | 0 | – | – | –
CCn1c([O-])c(/C=N/[N-]C(=O)c2ccc(C(F)(F)F)cc2)c(C)c(C#N)c1=O.CCn1c([O-])c(/C=N/[N-]C(=O)c2ccc(C(F)(F)F)cc2)c(C)c(C#N)c1=O.CCn1c([O-])c(/C=N/[N-]C(=O)c2ccc(C(F)(F)F)cc2)c(C)c(C#N)c1=O.CCn1c([O-])c(/C=N/[N-]C(=O)c2ccc(C(F)(F)F)cc2)c(C)c(C#N)c1=O.Oc1ccc(-c2ccccc2)cc1-[n+]1ccc(-c2cc[n+](-c3cc(-c4ccccc4)ccc3O)cc2)cc1.[Co+3].[Co+3] [Complex Compound (9)] | 0.97 | 1.00 | 0 | 1.00 | 0 | – | – | –
Cc1c(/C=N/[N-]c2nnnn2-c2ccccc2)c([O-])n(CC(C)C)c(=O)c1C#N.Cc1c(/C=N/[N-]c2nnnn2-c2ccccc2)c([O-])n(CC(C)C)c(=O)c1C#N.Cc1c(/C=N/[N-]c2nnnn2-c2ccccc2)c([O-])n(CC(C)C)c(=O)c1C#N.Cc1c(/C=N/[N-]c2nnnn2-c2ccccc2)c([O-])n(CC(C)C)c(=O)c1C#N.[Co+3].[Co+3].c1ccc(-[n+]2ccc(-c3cc[n+](-c4ccccc4)cc3)cc2)cc1 [Complex Compound (13)] | 0.87 | 0.99 | 0 | 0.99 | 0 | 0.59 | 0.5 | superior water resistance
